# Results reported in publication PMC5615050 (Scientific Reports, 2017).
# Several values for one entry are separate records, joined by “and”; a condition that tells them apart may be missing. Equal values may be shown once.
# Molecular target: Wild type H1N1 NA (Influenza A virus, UniProt P03470)
# Assay: biochemical
# Settings: IC50 Wild type H1N1
# Sequence of Wild type H1N1 NA (P03470 whole entry, looked up): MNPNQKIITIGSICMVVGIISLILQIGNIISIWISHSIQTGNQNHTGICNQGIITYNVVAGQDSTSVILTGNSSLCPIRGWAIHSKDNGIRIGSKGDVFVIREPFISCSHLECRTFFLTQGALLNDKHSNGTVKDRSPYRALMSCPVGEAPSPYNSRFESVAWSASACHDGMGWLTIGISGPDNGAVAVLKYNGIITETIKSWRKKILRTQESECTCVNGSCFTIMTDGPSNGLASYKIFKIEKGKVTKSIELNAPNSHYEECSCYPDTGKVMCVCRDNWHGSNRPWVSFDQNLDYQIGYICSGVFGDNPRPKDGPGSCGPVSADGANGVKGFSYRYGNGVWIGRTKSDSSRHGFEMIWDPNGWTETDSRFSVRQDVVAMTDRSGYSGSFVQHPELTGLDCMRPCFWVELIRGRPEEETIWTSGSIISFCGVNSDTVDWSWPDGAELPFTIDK
row,SMILES,IC50
1,O=C(Nc1ccc2c(O)c(/N=N/c3ccc4c(O)cc(S(=O)(=O)O)cc4c3)c(S(=O)(=O)O)cc2c1)c1ccccc1 [NSC45609],< 10 µM and 3.67 µM
2,Nc1ccc2c(O)c(/N=N/c3ccc4c(O)cc(S(=O)(=O)O)cc4c3)c(S(=O)(=O)O)cc2c1 [NSC162535],< 10 µM and 4.49 µM
3,O=C(Nc1ccc2c(O)cc(S(=O)(=O)O)cc2c1)Nc1ccc2c(O)cc(S(=O)(=O)O)cc2c1 [NSC45174],< 10 µM and 5.29 µM

# Same assay, conditions: NA inhibition, IC50 H1N1
row,SMILES,IC50 [µM]
1,CC12CCC(O)CC1CCC1C2CCC2(C)C(C3=CC(=O)OC3)CCC12O (stereo not drawn) [BPR1P0008S0],31.4 ± 7.33
2,CC12CCC(O)CC1CCC1C2CC(O)C2(C)C(C3=CC(=O)OC3)CCC12O (stereo not drawn) [BPR1P0007S0],36.5 ± 5.02
3,CC1OC(OC2CC(O)C3(CO)C4C(O)CC5(C)C(C6COC(O)C6)CCC5(O)C4CCC3(O)C2)C(O)C(O)C1O (stereo not drawn) [BPR1P0003S0],37.3 ± 13.4

# Test system: NA
# Assay: not given
# Settings: cited from earlier work
row,SMILES,IC50 [µM]
1,"CCC(CC)O[C@@H]1C=C(C(=O)O)C[C@H](N)[C@H]1NC(C)=O [GS4071, oseltamivir carboxylate, reference compound]",[…]

# Molecular target: Bac-NA^WT H1N1 (Influenza A virus, UniProt P03470)
# Sequence (P03470 whole entry, looked up): as above
# Assay: biochemical
# Settings: not given
row,SMILES,IC50 [µM]
1,CC12CCC(O)CC1CCC1C2CCC2(C)C(C3=CC(=O)OC3)CCC12O (stereo not drawn) [BPR1P0008S0],2
2,CC12CCC(O)CC1CCC1C2CC(O)C2(C)C(C3=CC(=O)OC3)CCC12O (stereo not drawn) [BPR1P0007S0],1.79 ± 0.01
3,CC1OC(OC2CC(O)C3(CO)C4C(O)CC5(C)C(C6COC(O)C6)CCC5(O)C4CCC3(O)C2)C(O)C(O)C1O (stereo not drawn) [BPR1P0003S0],2.18 ± 0.03

# Test system: Influenza A virus (A/WSN/33) H1N1
# Assay: microbe, parasite or virus in culture
# Type: cell-based
# Settings: not given
row,SMILES,concentration showing consistent blue color (living cells) in CPE assay [µM]
1,Nc1ccc2c(O)c(/N=N/c3ccc4c(O)cc(S(=O)(=O)O)cc4c3)c(S(=O)(=O)O)cc2c1 [NSC162535],≥ 50

# Same assay, conditions: Influenza A virus, MDCK, read-out: IC50 H1N1 (concentration to reduce the CPE of the virus by 50%)
row,SMILES,IC50 [µM]
1,O=C(Nc1ccc2c(O)c(/N=N/c3ccc4c(O)cc(S(=O)(=O)O)cc4c3)c(S(=O)(=O)O)cc2c1)c1ccccc1 [NSC45609],16.5
2,Nc1ccc2c(O)c(/N=N/c3ccc4c(O)cc(S(=O)(=O)O)cc4c3)c(S(=O)(=O)O)cc2c1 [NSC162535],61.5
3,O=C(Nc1ccc2c(O)cc(S(=O)(=O)O)cc2c1)Nc1ccc2c(O)cc(S(=O)(=O)O)cc2c1 [NSC45174],36.5

# Same assay, conditions: read-out: IC50 H1N1 (concentration to reduce the CPE of the virus by 50%)
row,SMILES,IC50 [µM]
1,O=C(Nc1ccc2c(O)c(/N=N/c3ccc4c(O)cc(S(=O)(=O)O)cc4c3)c(S(=O)(=O)O)cc2c1)c1ccccc1 [NSC45609],16.5 ± 0.63
2,Nc1ccc2c(O)c(/N=N/c3ccc4c(O)cc(S(=O)(=O)O)cc4c3)c(S(=O)(=O)O)cc2c1 [NSC162535],61.45 ± 0.17
3,"CCC(CC)O[C@@H]1C=C(C(=O)O)C[C@H](N)[C@H]1NC(C)=O [GS4071, oseltamivir carboxylate, reference compound]",0.02 ± 0.0031
4,O=C(Nc1ccc2c(O)cc(S(=O)(=O)O)cc2c1)Nc1ccc2c(O)cc(S(=O)(=O)O)cc2c1 [NSC45174],36.5 ± 1.19

# Test system: not listed separately
# Assay: in vitro
# Settings: dog
row,SMILES,CC50 [µM]
1,O=C(Nc1ccc2c(O)c(/N=N/c3ccc4c(O)cc(S(=O)(=O)O)cc4c3)c(S(=O)(=O)O)cc2c1)c1ccccc1 [NSC45609],> 100
2,Nc1ccc2c(O)c(/N=N/c3ccc4c(O)cc(S(=O)(=O)O)cc4c3)c(S(=O)(=O)O)cc2c1 [NSC162535],> 100
3,O=C(Nc1ccc2c(O)cc(S(=O)(=O)O)cc2c1)Nc1ccc2c(O)cc(S(=O)(=O)O)cc2c1 [NSC45174],> 100

# Molecular target: Wild type H5N1 NA (Influenza A virus, UniProt Q6DPL2)
# Sequence (Q6DPL2 whole entry, looked up): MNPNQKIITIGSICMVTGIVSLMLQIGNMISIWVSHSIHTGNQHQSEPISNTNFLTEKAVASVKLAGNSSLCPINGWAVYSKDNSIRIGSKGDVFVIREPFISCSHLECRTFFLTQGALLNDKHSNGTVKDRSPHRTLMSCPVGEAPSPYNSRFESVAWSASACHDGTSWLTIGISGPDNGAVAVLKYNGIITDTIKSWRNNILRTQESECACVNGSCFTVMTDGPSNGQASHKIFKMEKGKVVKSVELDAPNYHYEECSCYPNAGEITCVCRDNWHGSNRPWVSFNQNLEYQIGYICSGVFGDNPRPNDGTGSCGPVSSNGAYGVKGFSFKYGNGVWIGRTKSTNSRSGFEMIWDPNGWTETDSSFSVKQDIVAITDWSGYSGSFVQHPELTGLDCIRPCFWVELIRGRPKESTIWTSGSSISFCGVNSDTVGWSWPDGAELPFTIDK
# Assay: biochemical
# Type: biochemical
# Settings: not given
row,SMILES,IC50 [µM]
1,CC12CCC(O)CC1CCC1C2CCC2(C)C(C3=CC(=O)OC3)CCC12O (stereo not drawn) [BPR1P0008S0],2.56 ± 0.2
2,CC12CCC(O)CC1CCC1C2CC(O)C2(C)C(C3=CC(=O)OC3)CCC12O (stereo not drawn) [BPR1P0007S0],2.49 ± 1.43
3,O=C(Nc1ccc2c(O)c(/N=N/c3ccc4c(O)cc(S(=O)(=O)O)cc4c3)c(S(=O)(=O)O)cc2c1)c1ccccc1 [NSC45609],13 ± 0.78
4,Nc1ccc2c(O)c(/N=N/c3ccc4c(O)cc(S(=O)(=O)O)cc4c3)c(S(=O)(=O)O)cc2c1 [NSC162535],18.7 ± 1.89
5,CC1OC(OC2CC(O)C3(CO)C4C(O)CC5(C)C(C6COC(O)C6)CCC5(O)C4CCC3(O)C2)C(O)C(O)C1O (stereo not drawn) [BPR1P0003S0],2.62 ± 0.96
6,O=C(Nc1ccc2c(O)cc(S(=O)(=O)O)cc2c1)Nc1ccc2c(O)cc(S(=O)(=O)O)cc2c1 [NSC45174],16.7 ± 1.67

# Same assay, conditions: read-out: IC50 Wild type H5N1
row,SMILES,IC50 [µM]
1,O=C(Nc1ccc2c(O)c(/N=N/c3ccc4c(O)cc(S(=O)(=O)O)cc4c3)c(S(=O)(=O)O)cc2c1)c1ccccc1 [NSC45609],< 20
2,Nc1ccc2c(O)c(/N=N/c3ccc4c(O)cc(S(=O)(=O)O)cc4c3)c(S(=O)(=O)O)cc2c1 [NSC162535],< 20
3,O=C(Nc1ccc2c(O)cc(S(=O)(=O)O)cc2c1)Nc1ccc2c(O)cc(S(=O)(=O)O)cc2c1 [NSC45174],< 20
